# Target: T1, Human GPR40 (Homo sapiens (Human), UniProt O14842)
# Assay: Inositol Phosphate Turnover (IP1) Assay 1, HEK cells stably expressing human GPR40, 3H-inositol SPA
# Type: cell-based
# Conditions: HEK cells stably expressing human GPR40, 96-well
# Method: (§1) Human and mouse GPR40 stable cell-lines were generated in CHO cells stably expressing NFAT BLA (Beta-lactamase). A human GPR40 stable cell-line was generated in HEK cells stably expressing the aequorin expressing reporter. The expression plasmids were transfected using lipofectamine (Life Technologies) following manufacturer's instructions. Stable cell-lines were generated following drug selection.
# The assay was performed in 96-well format. HEK cells stably expressing human GPR40 were plated to be 60-80% confluent within 72 h. After 72 h, the plates were aspirated and the cells washed with inositol-free DMEM (ICN). The wash media was replaced with 150 μL of 3H-inositol labeling media (inositol-free media containing 0.4% human albumin or 0.4% mouse albumin, 1× pen/strep antibiotics, glutamine, 25 mM HEPES to which was added 3H-myo-inositol NEN #NET114A 1 mCi/mL, 25 Ci/mmol diluted 1:150 in loading media with a final specific radioactivity of 1 μCi/150 μL). Alternatively, the human and mouse albumin can be added after the overnight labeling step before the addition of LiCl.
# The assay was typically run the next day after 18 h labeling. On the day of the assay, 5 μL of 300 mM LiCl was added to all wells and incubated at 37 degrees for 20 min. 0.75 μL of each compound was added and incubated with the cells for 60 min at 37 degrees. The media was then aspirated off and the assay terminated with the addition of 60 μL 10 mM formic acid. The cells were lysed for 60 min at room temperature. 15-30 μL of lysate was mixed with 70 μL/1 mg YSi SPA beads (Amersham) in clear bottom Isoplates. The plates were shaken for 2 h at room temperature. Beads were allowed to settle and the plates were counted in the Wallac Microbeta.
# T1 sequence (O14842 whole entry): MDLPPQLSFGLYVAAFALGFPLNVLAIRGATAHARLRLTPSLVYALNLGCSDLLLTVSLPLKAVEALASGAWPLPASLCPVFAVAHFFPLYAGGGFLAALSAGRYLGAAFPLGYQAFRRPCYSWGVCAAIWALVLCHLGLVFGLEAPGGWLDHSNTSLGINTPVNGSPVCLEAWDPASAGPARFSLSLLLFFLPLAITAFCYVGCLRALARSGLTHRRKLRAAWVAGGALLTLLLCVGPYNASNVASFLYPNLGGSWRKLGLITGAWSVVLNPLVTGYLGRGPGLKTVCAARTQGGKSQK
row,EC50 [nM],Compound
1,4150,"O=C(O)C[C@H](c1cccc(OC2CC3(CCN(Cc4cc(C(F)(F)F)ccc4C(F)(F)F)C3)C2)c1)C1CC1 (single isomer, unassigned) [Example 5A]"
2,2140,"O=C(O)C[C@H](c1cccc(OC2CC3(CCN(Cc4cc(C(F)(F)F)ccc4C(F)(F)F)C3)C2)c1)C1CC1 (single isomer, unassigned) [Example 5B]"
3,166,"COc1cccc(C2CC2COc2cccc([C@@H](CC(=O)O)C3CC3)c2)c1 (single isomer, unassigned) [Example 62, (3 S)-3-cyclopropyl-3-(3-((2-(3-methoxyphenyl)cyclopropyl)methoxy)phenyl)propanoic acid]"
4,348,"COc1cccc(C2CC2COc2cccc([C@@H](CC(=O)O)C3CC3)c2)c1 (single isomer, unassigned) [Example 63, (3 S)-3-cyclopropyl-3-(3-((2-(3-methoxyphenyl)cyclopropyl)methoxy)phenyl)propanoic acid]"
5,89,"C[C@H](C(=O)O)[C@H](c1cccc(O[C@H]2CCCN(Cc3cc(C(F)(F)F)ccc3C(F)(F)F)C2)c1)C1CC1 [Example 1, (2S,3R)-3-(3-(((S)-1-(2,5-bis(trifluoromethyl)benzyl)piperidin-3-yl)oxy)phenyl)-3-cyclopropyl-2-methylpropanoic acid]"
6,1830,"O=C(O)C[C@H](c1cccc(OCCC2CCN(Cc3cc(C(F)(F)F)ccc3C(F)(F)F)C2)c1)C1CC1 (stereo partly drawn) [Example 2, (3S)-3-(3-(2-(1-(2,5-Bis(trifluoromethyl)benzyl)pyrrolidin-3-yl)ethoxy)phenyl)-3-cyclopropylpropanoic acid]"
7,181,COc1cc(OC2CC(COc3cccc([C@H](C4CC4)[C@H](C)C(=O)O)c3)C2)ccn1 (stereo partly drawn) [Example 93]
8,110,C[C@H](C(=O)O)[C@H](c1cccc(OCC2CC(Oc3ccccc3F)C2)c1)C1CC1 (stereo partly drawn) [Example 94]
9,1390,C[C@H](C(=O)O)[C@H](c1cccc(OCC2CC(Oc3ccc(OC(F)F)nc3)C2)c1)C1CC1 (stereo partly drawn) [Example 95]
10,8230,COc1ncc(OC2CC(COc3cccc([C@H](C4CC4)[C@H](C)C(=O)O)c3)C2)cn1 (stereo partly drawn) [Example 96]
11,7240,Cc1cc(OC2CC(COc3cccc([C@H](C4CC4)[C@H](C)C(=O)O)c3)C2)n(C)n1 (stereo partly drawn) [Example 97]
12,560,Cc1c(OC2CC(COc3cccc([C@H](C4CC4)[C@H](C)C(=O)O)c3)C2)nn(C)c1C(F)(F)F (stereo partly drawn) [Example 100]
13,7220,C[C@H](C(=O)O)[C@H](c1cccc(OCC2CC(Oc3ccnn3C)C2)c1)C1CC1 (stereo partly drawn) [Example 101]
14,643,C[C@H](C(=O)O)[C@H](c1cccc(OCC2CC(Oc3ccccn3)C2)c1)C1CC1 (stereo partly drawn) [Example 102]
15,187,C[C@H](C(=O)O)[C@H](c1cccc(OCC2CC(Oc3ccccn3)C2)c1)C1CC1 (stereo partly drawn) [Example 103]
16,54,COc1cc(OC2CC(COc3cccc([C@H](C4CC4)[C@H](C)C(=O)O)c3)C2)c(F)cn1 (stereo partly drawn) [Example 106]
17,7190,C[C@H](C(=O)O)[C@H](c1cccc(OCC2CC(Oc3cccnc3)C2)c1)C1CC1 (stereo partly drawn) [Example 109]
18,1960,C[C@H](C(=O)O)[C@H](c1cccc(OCC2CC(Oc3cccnc3)C2)c1)C1CC1 (stereo partly drawn) [Example 110]
19,3100,C[C@H](C(=O)O)[C@H](c1cccc(OCC2CC(Oc3ccnc4c3OCCO4)C2)c1)C1CC1 (stereo partly drawn) [Example 111]
20,109,CCOc1ccccc1OC1CC(COc2cccc([C@H](C3CC3)[C@H](C)C(=O)O)c2)C1 (stereo partly drawn) [Example 112]
21,1210,CCOc1ccc(OC2CC(COc3cccc([C@H](C4CC4)[C@H](C)C(=O)O)c3)C2)cc1 (stereo partly drawn) [Example 113]
22,107,C[C@H](C(=O)O)[C@H](c1cccc(OCC2CC(Oc3c(F)cccc3F)C2)c1)C1CC1 (stereo partly drawn) [Example 114]
23,110,C[C@H](C(=O)O)[C@H](c1cccc(OCC2CC(Oc3cc(F)ccc3F)C2)c1)C1CC1 (stereo partly drawn) [Example 115]
24,577,COc1ccc(OC2CC(COc3cccc([C@H](C4CC4)[C@H](C)C(=O)O)c3)C2)cc1 (stereo partly drawn) [Example 124]
25,565,COc1ccc(OC2CC(COc3cccc([C@H](C4CC4)[C@H](C)C(=O)O)c3)C2)cc1 (stereo partly drawn) [Example 125]
26,72,COc1ccccc1OC1CC(COc2cccc([C@H](C3CC3)[C@H](C)C(=O)O)c2)C1 (stereo partly drawn) [Example 128]

row,EC50 [nM],Compound
1,119,CCOc1cccc(OC2CC(COc3cccc([C@H](C4CC4)[C@H](C)C(=O)O)c3)C2)c1 (stereo partly drawn) [Example 131]
2,150,C[C@H](C(=O)O)[C@H](c1cccc(OCC2CC(Oc3ccccc3-c3ccccc3)C2)c1)C1CC1 (stereo partly drawn) [Example 132]
3,307,C[C@H](C(=O)O)[C@H](c1cccc(OCC2CC(Oc3cccc4c3OC(C)(C)C4)C2)c1)C1CC1 (stereo partly drawn) [Example 135]
4,262,C[C@H](C(=O)O)[C@H](c1cccc(OCC2CC(Oc3cccc(C(F)(F)F)c3)C2)c1)C1CC1 (stereo partly drawn) [Example 136]
5,176,C[C@H](C(=O)O)[C@H](c1cccc(OC[C@H]2C[C@@H]2c2cccc(OC(F)(F)F)c2)c1)C1CC1 [Example 137]
6,74,C[C@H](C(=O)O)[C@H](c1cccc(OC[C@H]2C[C@@H]2c2cccc(OC3CC3)c2)c1)C1CC1 [Example 138]
7,188,COc1ccc(OC)c([C@H]2C[C@@H]2COc2cccc([C@H](C3CC3)[C@H](C)C(=O)O)c2)c1 [Example 139]
8,225,COc1cccc([C@H]2C[C@@H]2COc2cccc([C@H](C3CC3)[C@H](C)C(=O)O)c2)c1F [Example 140]
9,109,COc1cc(F)cc([C@H]2C[C@@H]2COc2cccc([C@H](C3CC3)[C@H](C)C(=O)O)c2)c1 [Example 141]
10,78,COc1ccc(F)c([C@H]2C[C@@H]2COc2cccc([C@H](C3CC3)[C@H](C)C(=O)O)c2)c1F [Example 142]
11,175,C[C@H](C(=O)O)[C@H](c1cccc(OC[C@H]2C[C@@H]2c2cc(C(F)(F)F)ccc2Cl)c1)C1CC1 [Example 143]
12,385,C[C@H](C(=O)O)[C@H](c1cccc(OC[C@H]2C[C@@H]2c2ccc(F)c(C(F)(F)F)c2)c1)C1CC1 [Example 144]
13,223,C[C@H](C(=O)O)[C@H](c1cccc(OC[C@H]2C[C@@H]2c2cc(OC(F)(F)F)ccc2F)c1)C1CC1 [Example 145]
14,111,C[C@H](C(=O)O)[C@H](c1cccc(OC[C@H]2C[C@@H]2c2cc(OC(F)(F)F)ccc2Cl)c1)C1CC1 [Example 146]
15,4440,C[C@H](C(=O)O)[C@H](c1cccc(OC[C@H]2C[C@@H]2c2cccnc2)c1)C1CC1 [Example 147]
16,802,COc1ncc([C@H]2C[C@@H]2COc2cccc([C@H](C3CC3)[C@H](C)C(=O)O)c2)cc1F [Example 149]
17,4470,COc1cncc([C@H]2C[C@@H]2COc2cccc([C@H](C3CC3)[C@H](C)C(=O)O)c2)c1 [Example 150]
18,90,C[C@H](C(=O)O)[C@H](c1cccc(OC[C@H]2C[C@@H]2c2cc(F)ccc2F)c1)C1CC1 [Example 151]
19,89,C[C@H](C(=O)O)[C@H](c1cccc(OC[C@H]2C[C@@H]2c2cc(Cl)ccc2F)c1)C1CC1 [Example 152]
20,325,COc1cc(F)c([C@H]2C[C@@H]2COc2cccc([C@H](C3CC3)[C@H](C)C(=O)O)c2)cc1F [Example 153]
21,544,COc1ccc([C@H]2C[C@@H]2COc2cccc([C@H](C3CC3)[C@H](C)C(=O)O)c2)c(F)c1 [Example 154]
22,316,C[C@H](C(=O)O)[C@H](c1cccc(OC[C@H]2C[C@@H]2c2cc(C(F)(F)F)ccc2C(F)(F)F)c1)C1CC1 [Example 155]
23,355,C[C@H](C(=O)O)[C@H](c1cccc(OC[C@H]2C[C@@H]2c2ccc(Cl)c(C(F)(F)F)c2)c1)C1CC1 [Example 156]
24,130,C[C@H](C(=O)O)[C@H](c1cccc(OC[C@H]2C[C@@H]2c2cc(C(F)(F)F)ccc2F)c1)C1CC1 [Example 157]
25,26,COc1ccc(Cl)c([C@H]2C[C@@H]2COc2cccc([C@H](C3CC3)[C@H](C)C(=O)O)c2)c1 [Example 158]
26,472,COc1ccc([C@H]2C[C@@H]2COc2cccc([C@H](C3CC3)[C@H](C)C(=O)O)c2)cc1 [Example 159]

# Target: T1, Human GPR40
# Assay: FLIPR assay, agonist-induced calcium mobilization in GPR40/CHO NFAT BLA cells
# Type: cell-based
# Conditions: not given
# Method: as §1
# FLIPR (Fluorimetric Imaging Plate Reader, Molecular Devices) assays were performed to measure agonist-induced calcium mobilization of the stable clones. For the FLIPR assay, one day before assay, GPR40/CHO NFAT BLA cells were seeded into black-wall-clear-bottom 384-well plates (Costar) at 1.4×10e4 cells/20 μL medium/well. The cells were incubated with 20 μl/well of the assay buffer (HBSS, 0.1% BSA, 20 mM HEPES, 2.5 mM probenecid, pH 7.4) containing 8 μM fluo-4, AM, 0.08% pluronic acid at room temperature for 100 minutes. Fluorescence output was measured using FLIPR. Compounds were dissolved in DMSO and diluted to desired concentrations with assay buffer. 13.3 μL/well of compound solution was added.
row,EC50 [nM],Compound
1,455,"O=C(O)C[C@H](c1cccc(OC2CC3(CCN(Cc4cc(C(F)(F)F)ccc4C(F)(F)F)C3)C2)c1)C1CC1 (single isomer, unassigned) [Example 5A]"
2,113,"O=C(O)C[C@H](c1cccc(OC2CC3(CCN(Cc4cc(C(F)(F)F)ccc4C(F)(F)F)C3)C2)c1)C1CC1 (single isomer, unassigned) [Example 5B]"
3,5.7,"COc1cccc(C2CC2COc2cccc([C@@H](CC(=O)O)C3CC3)c2)c1 (single isomer, unassigned) [Example 62, (3 S)-3-cyclopropyl-3-(3-((2-(3-methoxyphenyl)cyclopropyl)methoxy)phenyl)propanoic acid]"
4,15,"COc1cccc(C2CC2COc2cccc([C@@H](CC(=O)O)C3CC3)c2)c1 (single isomer, unassigned) [Example 63, (3 S)-3-cyclopropyl-3-(3-((2-(3-methoxyphenyl)cyclopropyl)methoxy)phenyl)propanoic acid]"
5,1.9,"C[C@H](C(=O)O)[C@H](c1cccc(O[C@H]2CCCN(Cc3cc(C(F)(F)F)ccc3C(F)(F)F)C2)c1)C1CC1 [Example 1, (2S,3R)-3-(3-(((S)-1-(2,5-bis(trifluoromethyl)benzyl)piperidin-3-yl)oxy)phenyl)-3-cyclopropyl-2-methylpropanoic acid]"
6,173,"O=C(O)C[C@H](c1cccc(OCCC2CCN(Cc3cc(C(F)(F)F)ccc3C(F)(F)F)C2)c1)C1CC1 (stereo partly drawn) [Example 2, (3S)-3-(3-(2-(1-(2,5-Bis(trifluoromethyl)benzyl)pyrrolidin-3-yl)ethoxy)phenyl)-3-cyclopropylpropanoic acid]"
7,387,O=C(O)C[C@H](c1cccc(OC2CCN(Cc3cccc(C(F)(F)F)c3)C2)c1)C1CC1 (stereo partly drawn) [Example 45]
8,480,CC(c1cc(F)ccc1F)N1CC(COc2cccc([C@@H](CC(=O)O)C3CC3)c2)C1 (stereo partly drawn) [Example 57]
